The values below come from patent publication US20260097022A1, “COMPOUNDS AND USES THEREOF” (Integrated Biosciences, Inc., priority 2023, published 2026).

For one data set, the target named is T1, Bcl-2 (Homo sapiens, UniProt P10415).
T1 construct: purchased BPS Bioscience 50222
Kind of data set: BCL-2 TR-FRET, inhibition of Bcl-2 binding to a peptide ligand. The note with it: at micromolar concentrations. The procedure: BCL-2 TR-FRET. Inhibition of Bcl-2 binding to a peptide ligand was measured using the BCL-2 TR-FRET Assay Kit from BPS Bioscience (BPS Bioscience 50222). Briefly, the provided BCL TR-FRET assay buffer was diluted 1:3 with ultrapure Milli-Q water. The anti-His terbium-labeled donor and dye-labeled acceptor were each diluted 1:100 with diluted assay buffer. The BCL-2 peptide ligand was thawed on ice and diluted 1:40 with diluted assay buffer, and BCL-2 protein was diluted with diluted assay buffer to a working concentration of 1 ng/μL. Test compounds at the indicated final concentrations were prepared as stock 10% DMSO solutions in ultrapure Milli-Q water. The reaction was performed by combining 5 μL diluted donor. 5 μL diluted acceptor. 2 μL test compound. 5 μL diluted ligand, and 3 μL diluted protein in each well of the provided white, flat-bottom 384-well plate. Positive control reactions had 2 μL 10% DMSO in water in lieu of test compound. Negative control reactions had 2 μL 10% DMSO in water and 5 μL diluted assay buffer in lieu of test compound and diluted ligand. Reactions were incubated at room temperature for 3 hours, and fluorescent intensities were measured using a SpectraMax® M5 plate reader and manufacturer software (SoftMax Pro 6) with the following TR-FRET settings; for terbium-labeled donor emission, ex/em. 340/620 nm: lag time. 100 μs: integration time. 500 μs: for dye-acceptor emission, ex/em. 340/665 nm: lag time. 100 μs; integration time. 500 μs. The TR-FRET ratio. 665 nm emission/620 nm emission, was calculated for all reactions, and percentage activity was calculated by linearly interpolating the positive and negative control TR-FRET ratio values between relative activity values of 0) and 1. Experiments were performed in biological duplicate and repeated on independent occasions.
(In general: In TR-FRET formats the signal depends on donor and acceptor labels being close together.)

A further data set concerns HepG2 cells. Nature of the data set: Cytotoxicity against HepG2 cells (resazurin). In kind it is cell-based, human. The following applies: 3 days treatment, curve-fitting, two biological replicates. The procedure:
(§1) Measuring cytotoxicity against HepG2 and HEK293 cells. Cytotoxicity in human embryonic kidney (HEK293) and liver carcinoma (HepG2) cells was assayed as above using a resazurin assay. Cells were obtained from ATCC (ATCC CRL-1573 and HB-8065), passaged <10 times, and grown in Dulbecco's modification of Eagle's Medium (DMEM: Corning 10^−013-CV) supplemented with 10% FBS and 1% penicillin-streptomycin. 99 μL of cells were plated into each well of a 96-well clear flat-bottom, black polystyrene tissue-culture-treated plate at a density of ˜10+ cells/well, and plates were incubated overnight for adhesion. The day after plating. 1 μL of each compound, prepared as two-fold serial dilutions of 5 mM stock solutions in DMSO, was added to each well. Cells were incubated for 3 days, after which resazurin was added to each well to a final concentration of 0.15 mM. After an additional 1 day of incubation, the fluorescence excitation/emission at 550/590 nm was read using a SpectraMax M3 plate reader. Experiments were performed in biological duplicate. IC50 values were determined by normalizing with respect to the fluorescence intensity values of untreated control cells on day 3, as described in Calculation of cellular viability values in dose-response curves above.
Background: The colour change of resazurin is a common sign of viable cells or microbes.

Data set [1] deals with Salmonella typhimurium TA100. Nature of the data set: Genotoxicity assay (Ames 384-ISO test). In kind it is cell-based. The note with it: 100 μM. The procedure:
Genotoxicity assay. An Ames 384-ISO test (6041-1S) from Environmental Bio-Detection Products, Inc, was used following the manufacturer's instructions. Briefly. Salmonella typhimurium TA100 was grown overnight (16-18 h) at 37° C., with shaking at 300 rpm and treated with the provided exposure media and compound samples at the final concentrations indicated. Treatment with the provided 4-nitroquinoline 1-oxide (4NQO), a mutagen, was used as a positive control. Cells were then added to the provided reversion solution, and each sample was split into 48 wells of 384-well plates. Plates were incubated at 37° C., for 2 days, after which the number of revertant (yellow-colored) wells corresponding to each sample was counted. […] An overnight bacterial culture was diluted 1:10.000 in LB medium (Becton Dickinson 244620) and plated using 99 μL working volumes into the wells of a clear flat-bottom 96-well plate. One μL of two-fold dilutions of each test compound in DMSO, starting from a final concentration of 500 μM, was added across wells, and plates were sealed and incubated overnight at 37° C., to determine bacterial growth.

The subject of a further data set is HEK293 cells. Nature of the data set: Cytotoxicity against HEK293 cells (resazurin). Format: cell-based, human. The following applies: 3 days treatment, curve-fitting, two biological replicates. The procedure: as §1

T1 sequence (P10415 whole entry): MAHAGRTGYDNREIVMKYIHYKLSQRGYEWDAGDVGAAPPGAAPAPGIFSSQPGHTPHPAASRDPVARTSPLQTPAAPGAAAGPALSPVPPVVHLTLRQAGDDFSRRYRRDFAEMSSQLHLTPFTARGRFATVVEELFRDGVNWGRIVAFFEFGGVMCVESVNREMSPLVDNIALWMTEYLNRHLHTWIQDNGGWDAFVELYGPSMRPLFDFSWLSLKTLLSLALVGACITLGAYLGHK

One may read the IC50 as the concentration that inhibits the measured activity by half. Turning to `O=C(Nc1ccc(S(=O)(=O)Nc2ncccn2)cc1)c1ccc(-c2ccccc2)cc1` [BRD-K20733377], the “inhibition of Bcl-2 binding activity to a peptide ligand” value (shortened to “inhibition of Bcl-2 binding activity”) at Bcl-2 is on record as “inhibited Bcl-2”. Also, the figures for the IC50 in the data set on HepG2 cells and in the data set on HEK293 cells were 70.3 µM and 51.1 µM, respectively. Further, in data set [1], the “reversion of bacterial cultures (mutagenic potential)” value (from here on “reversion of bacterial cultures”) is recorded as “did not induce significant reversion”.

As for `COc1ccc(C(=O)Nc2ccc3nc(SCC(=O)Nc4ccccc4F)sc3c2)cc1OC` [compound 6], at Bcl-2, the “inhibition of Bcl-2 binding activity” value is reported as “inhibited Bcl-2”. Besides, the IC50 worked out at 421 µM in the data set with HepG2 cells (Homo sapiens, HepG2, 72 h) and 21.4 µM in the data set on HEK293 cells (Homo sapiens, HEK293, 72 h). For the same molecule, in data set [1], the “reversion of bacterial cultures” value was “did not induce significant reversion”.

Turning to `Cc1ccccc1C(=O)Nc1ccc2nc(SCC(=O)Nc3ccccc3)sc2c1` [compound 19], the “inhibition of Bcl-2 binding activity” value on Bcl-2 is recorded as “inhibited Bcl-2”. Moreover, the IC50 in the data set with HepG2 cells (Homo sapiens, HepG2, 72 h) was 383 µM; in the data set on HEK293 cells (Homo sapiens, HEK293, 72 h) it was 160 µM. For the same molecule, the “reversion of bacterial cultures” value in data set [1] is on record as “did not induce significant reversion”.
